Experiments:
A375 human skin melanoma = assay: Crystal violet (CV) cell viability assay, A375; type: cell-based; details: 72 h
Text: Thus, care must be taken when comparing their biological activities with those of our previous studies, even with the same cell line, because the covalent vs. non‐covalent combination of drugs might imply different mechanisms of action in the cell.44 Here, we studied the in vitro activity of ruthenacarborane 3, i. e. free acid, and its 8‐hydroxyquinolyl (4) and 4‐{(7‐chloroquinolin‐4‐yl)oxy}butanol‐1‐yl (5) esters, against a panel of cancer cell lines (B16 mouse melanoma, A375 human skin melanoma, MCF‐7 human breast adenocarcinoma, LN229 human glioblastoma, U251 human glioma). Human fibroblast cell line MRC‐5, murine microglial cell line BV‐2 as well as peritoneal exudate cells (Mph), were chosen as models for non‐malignant cells. […] On the other side, we wanted to assess the reproducibility of the viability data, under either controlled (with BSA) or uncontrolled (without BSA) conditions, in two sets of independent assays. […] Cells were exposed to 3–5 for 72 h, after which cell viability was determined via 3‐(4,5‐dimethylthiazol‐2‐yl)‐2,5‐diphenyltetrazolium bromide (MTT) and crystal violet (CV) assays, in parallel (Table 2). Cisplatin was also tested as reference.
Preparation of drug solutions. […] Stock solution of cisplatin was prepared in DMF (10 mM) immediately before use. A stock solution of BSA in PBS was prepared at 1.28 mM concentration, and stored at 4 °C in the dark. […] Alternatively, 3 or 4 (DMSO stock solution) were added to the BSA solution in PBS, always with a 10 : 1 molar ratio of BSA to ruthenacarborane. The BSA−ruthenacarborane solutions were incubated 0.5–1 h at room temperature, then diluted with cell culture medium to the desired final concentrations. Final concentrations of 3 and 4 were the same as for the BSA‐free formulation. Final DMSO was 0.02–0.5 vol %.
Colorimetric assays for cellular viability. […] For counting the number of attached (viable) cells, cells were fixed with 4 % (w/v) paraformaldehyde for 10 min at room temperature, and subsequently stained for 15 min with […] crystal violet (CV) solution. Cells were then washed with tap water, dried in air, and the CV dye was dissolved in 33 % (w/v) acetic acid solution. For the detection of mitochondrial respiration, cells were cultivated in MTT staining solution (0.5 mg mL^−1) for approximately 1 h. The dye was then discarded, and the formed formazan (purple) was dissolved in DMSO. The absorbance was measured with an automated microplate reader at λmax 540 nm, with the reference λmax 670 nm. Untreated cells or cells treated only with BSA (control) were also measured, as reference for BSA‐free and BSA‐containing drug formulations, respectively. […] Cell viability is expressed as percentage (%) relative to control (untreated cultures).58 Experiments were run in three independent replicates. […]

MCF‐7 cells = assay: AO staining (acidic vacuoles, autophagy), MCF‐7; type: cell-based, human; details: MCF‐7, 20 μM, 72 h
Experimental: (§1) Flow cytometry. For gaining better insights into the mechanisms of action of the ruthenium complexes, MCF‐7 and LN229 cells incubated with an IC50 dose of 3 or 4, were analyzed via flow cytometry. Several staining protocols were carried out in parallel, in independent experiments: i) AnnV/PI for the detection of apoptotic cell death, ii) AO for the detection of acidic vacuoles, iii) ApoStat for checking caspase activation, iv) CFSE for detecting interference with cellular proliferation, and v) DAPI for the detection of morphological signs of apoptosis. Untreated cells or cells treated only with BSA (control) were also measured, as reference for BSA‐free and BSA‐containing drug formulations, respectively. […] Channels FL1 (green emission), FL2 (orange emission) and/or FL3 (dark red emission) were used for fluorescence detection, according to the specific staining agent. Sideward Scatter (SSC) for MCF‐7 cells treated with 4 or BSA−4 was also analyzed, with respect to the control, for detection of shifts of cell granularity. […]
(§2) FCS, 2 mM L‐glutamine, 0.01% sodium pyruvate and antibiotics, at 37 °C in a humidified atmosphere with 5% CO2. […] Cells were counted and seeded in 96‐well plates and incubated overnight, as described above. […]
(§3) Staining Protocols for Flow Cytometric Analysis. […] Finally, cells were washed in PBS, resuspended in PBS (or AnnV‐binding buffer for AnnV/PI), and analysed. […]

LN229 cells = assay: AnnV/PI double staining, flow cytometry, LN229; type: cell-based, human; details: LN229, 40 μM, 72 h
Experimental: as §1, §2, §3

Row | Substance | IC50 (A375 human skin melanoma) | autophagy (AO staining) (MCF‐7 cells) | early apoptotic (Ann+/PI−) cells (LN229 cells; control 0.9 %) | late apoptotic (Ann+/PI+) cells (LN229 cells; control 7.4 %)
1 | closo‐ [Compound 3, closo‐ [3‐(η^6‐p‐Cymene)‐1‐(CH2COOH)‐3,1,2‐RuC2B9H10]] | 18.7 ± 1.8 µM | strongly amplified autophagic processes |  | 
2 | closo ‐[3‐(η^6‐p‐Cymene)‐1‐(quinolin‐8‐yl‐acetate)‐3,1,2‐RuC2B9H10] [Compound 4] | 14.9 ± 2.1 µM | suppressed autophagy | 9.0% | 35%

Reference: paper PMC6973020, “Quinoline‐Conjugated Ruthenacarboranes: Toward Hybrid Drugs with a Dual Mode of Action” (Chemmedchem, 2019)
